3 molecules from US20240139149A1, “THERAPEUTIC USES OF UROLITHIN DERIVATIVES” (Vandria SA, priority 2022, published 2024) can be followed below.

SMILES strings stand for the structures.

One assay relates to APTK-OVA tumors. Nature of the assay: Adoptive transfer of UA-conditioned OT-1 T cells into Rag1−/− mice. It counts as in vivo, mouse. Particulars: seven days after transfer into Rag1−/− mice, T cells cultured 48 hours with UA. On the procedure:
For adoptive cell transfer, purified splenic T cell from OT1 mice were isolated and activated using αCD3/αCD28 stimulation beads for 48 h. After magnetic bead removal, 1×10^6 T of activated T cell were intravenously injected into Rag1−/− recipients. To study survival of transferred T cells, stimulated OT-1 T cells were injected into mice without tumors. Subsequently, after 7 days, spleens were isolated and splenocytes were stained for the CD8+ subsets as described below. To understand antitumor immunity conferred by transferred OT-1 lymphocytes, cells were injected into mice carrying APTK-OVA tumors 10 days after subcutaneous organoid transplantation. Tumor growth was assessed as described above. Mice were kept under regular chow food for the T cell adoptive transfer experiment and sacrificed collectively when maximum tumor diameter extended 1.5 cm.
Tumors were minced and digested with Tumor & Tissue Dissociation Reagent (BD Horizon) for 30 min. The remaining organ pieces were filtered through a 70 µm cell strainer. Cells were then washed with PBS 1% BSA and 2 mM EDTA. Immune cells were enriched on a 30%/40%/75% Percoll gradient after a 1700 rpm 17 min centrifugation. Then, tumor immune filtrates or activated T cells were stained with Fixable Viability Dye-eF780 (65-0865-14; eBioscience), αCD45-FITC (30-F11; 11-0451-85; eBioscience), αCD11b-BV650 (M1/70; 56340; BD) α-CD11c-BV785 (HL3; 563735; BD), aLy6G-BV605 (53-6.7; 563005; BD), aLy6C-AF700 (HK1.4; 128024; Biolegend), aF4/80-PE (BM8; 12-4801-82, eBioscience), aPD-L1-PECy7 (MIH5; 25-5982-80, eBioscience); or with Fixable Viability Dye-eF780 (ebioscience), αCD45-BV786 (30-F11; 564225; BD), αCD4-BUV496 (GK1.5; 564667; BD), αCD8-BV605 (100744; Biolegend), aPD1-APC (J43; 17-9985-82; eBioscience), aTIM-3-PECy7 (RMT3-23; 119715; Biolegend), aCTLA4-PE (UC10-4B9; 106305; Biolegend) and aLag3-BV421 (C9B7W; 125221, Biolegend); or with Fixable Viability Dye-eF780 (eBioscience), αCD4-FITC (H129.19; 553650; BD), αCD8-APC (53-6.7; 17-0081-83; eBioscience), αCD44-AF400 (IM7; 103026; Biolegend), αCD62L-BV785 (MEL-14; 104440; Biolegend), αSca-1-PerCP-Cy5.5 (D7; 45-5981-82; eBioscience), αCD95-PE (Jo2; 554258; BD); or with Fixable Viability Dye-eF780 (eBioscience), αCD8-BV650 (53-6.7; 563234; BD), αCD4-BUV496 (GK1.5; 564667; BD), αCD127-APC (A7R34; 17-1271-82; eBioscience), αCD95-FITC (SA367H8;152605; Biolegend), αCD44-AF400 (IM7; 103026; Biolegend), αCD62L-BV785 (MEL-14; 104440; Biolegend), αSca-1-PerCP-Cy5.5 (D7; 45-5981-82; eBioscience) followed by intracellular staining of aTCF1-PE (S33-966; 564217; BD), or PGC-1α (sc-518025; D-5; santa cruz), or aCyclinD1 (MA5-28534, DCS-6; Invitrogen) with transcription factor buffer set kit (BD Biosciences). To study cytokine expression, tumor immune infiltrates were stimulated ex vivo with 20 ng/mL PMA and […] Ionomycin (Sigma) for 3 h in T cell activation medium with Brefeldin A (Biolegend). For T cell in vitro activation experiments over several days, Brefeldin A was added to the medium for the last 3 hours. Cells were then stained with Fixable Viability Dye-eF780 (eBioscience), αCD8-PeCy7 (53.6-7; 100722; Biolegend), αCD4-AF700 (GK1.5; 100429; Biolegend), and intracellular staining for cytokine assessment was performed with BD Cytofix/Cytoperm (BD) with 20 min fixation and overnight incubation with αGranzyme B-FITC (GB11; 515403; Biolegend), αIFNγ-PerCPCy5.5 (XMG1.2; 45-7311-82; eBioscience) and αTNFa-BV711 (MP6-XT22; 563944; BD). For flow cytometric analysis of mitochondria and lysosomes 500 μl of Mitotracker Red (200 nM; ThermoFisher) or Lysotracker Red DND-99 (75 nM; ThermoFisher) were applied followed by surface staining. To study changes in mitochondrial membrane potential, Mitoprobe TMRM kit (ThermoFisher) was used according to the manufacturer's instructions. Cell proliferation was assessed by CellTrace Violet (Invitrogen, C34557) at a concentration of […] according to manufacturer's instructions. […]

For assay [1], the system named is rat model of heart failure. Nature of the assay: Rat model of heart failure after myocardial infarction (LAD ligation), echocardiography. The format is in vivo. The source says:
Generation of a rat model of cardiac impairment following myocardial infarction Fifty (50) Wistar male rats from Janvier Labs (France), 6-week-old (200-224 g on the day of arrival), were included in this study. Acclimatization of animals lasted at least 5 days. During the study, animals had free access to food and drinking water ad libitum.
Myocardial infarction (MI) was induced by chronic left anterior descending coronary artery (LAD) ligation performed at DO. Rats were anesthetized with an intraperitoneal (IP) injection of Medetomidine (0.5 mg/kg) and Ketamine (50 mg/kg), intubated and ventilated at 10 mL/kg tidal volume and 70-80 cycles/min. Body temperature was maintained between 36.5° C. and 37.5° C. via a thermoregulated heating pad connected to a rectal probe. A left lateral thoracotomy was carefully performed so as to expose the heart. Then, a suture was placed around the LAD (4/0 Silk, Ethicon), around 2 mm below the left atrium and close to the interventricular junction, in order to obtain infarct size (IS) near 40% of the total left ventricular (LV) area. Chest was closed, air was expelled from the rib cage to avoid pneumothorax and quick reanimation was performed using atipamezole hydrochloride (IM, 0.5 mg/mL, Zoetis). A peri-operative care of the animals was performed during the surgery: • Pre-operative care by one carprofen injection (SC, 5 mg/kg, Pfizer) and one lidocaine injection on the site of incision (SC, 4 mg/kg, Vetoquinol). • Post-operative care: 3 injections of buprenorphine (SC, 0.01 mg/kg, Axience) administered after awakening and during the first 24 hours after the surgery.
Rats underwent transthoracic echocardiographic examination in order to assess cardiac morphology and function in a noninvasively way. […]
Left ventricle (LV) function was assessed using ejection fraction (EF), calculated as follow: […]
Statistical analysis was performed with the Graphpad 6 software. […] First, differences were assessed between Sham/Vehicle and MI/Vehicle using an unpaired ttest followed by the appropriate post-hoc test. […]

Another assay concerns human T lymphocytes. Nature of the assay: Proportion of human T memory stem cells (Tscm). It counts as cell-based. From the text:
Human peripheral blood mononuclear cells were purified with a Ficoll-Paque (GE healthcare) gradient. T cells were enriched with EasySep Human T Cell Isolation Kit (StemCell) and activated with dynabead Human T-Activator CD3/CD28 for T Cell Expansion and Activation Kit (11131D; ThermoFisher Scientific). Cells were activated with compound 66 at the indicated concentration or DMSO. Tscm cells are identified and counted based on the expression of five different markers: CD45RA^+CCR7^HiCD62L^+CD95^+CD8^+.
Human peripheral blood mononuclear cells were purified with a Ficoll-Paque (GE healthcare) gradient. T cells were enriched with EasySep Human T Cell Isolation Kit (StemCell) and activated with dynabead Human T-Activator CD3/CD28 for T Cell Expansion and Activation Kit (11131D; ThermoFisher Scientific). Cells were activated with the 77 at 400 nM or DMSO.
Staining was performed as described in Example 15.
(§1) Flow cytometry and analysis was performed as described in Example 14.

For assay [2], the system named is mouse T lymphocytes. Nature of the assay: Mitochondrial content (Mitotracker positive cells) in mouse T lymphocytes. The note with it: 2 μM, 72 h; for percentage of Mitotracker positive cells: DMSO 44%. It counts as cell-based. On the procedure:
Splenic murine T cells were isolated from mice aged 6-20 weeks by negative selection with EasySep mouse T cell isolation kit (Stem cell) according to the manufacturer's instructions. T cell activation was initiated using CD3/CD28 activation beads (11456D; ThermoFisher Scientific) at a ratio of 25 μl dynabeads per 0.5×10^6 T-cells. Cells were activated with test compounds at 2 μM or DMSO in T cell activation Medium (RPMI (ThermoFisher Scientific) 10% FBS (South America origin), 10 mM Hepes (Sigma), 1× Non-Essential Amino Acid, 1 mM Sodium Pyruvate, 50 μM β-Mercaptoethanol, 100 U/ml penicillin, 100 μg/ml streptomycin and 2 mM Glutamax (ThermoFisher Scientific) for 72 h. For subsequent analysis, activating beads were magnetically removed prior staining.
For flow cytometric analysis of mitochondria 500 μl of Mitotracker Red (200 nM; ThermoFisher) was applied followed by surface staining.
Cell doublets and cells debris were excluded from the analysis by gating FSC-A vs FSC-H followed by SSC-A vs SSC-H dot plots and FSC-A vs SSC-A dot plots, respectively. eFluor 780 highly positive cells, i.e, dead cells, were gated out of the analysis. Data was acquired on Canto II (BD), Fortessa (BD) and Aurora (Cytek) cytometers and analyzed with FlowJo.

Assay [3] deals with mouse T lymphocytes. Nature of the assay: Proportion of mouse T memory stem cells (Tscm). It counts as cell-based. Particulars: 2 μM, 72 h. The method, then:
T cells were isolated and stimulated as described in Example 14.
Tscm represent a subset of minimally differentiated T cells, which share a CD44^loCD62L^hi phenotype with naïve T cells, but are phenotypically distinct by expressing high levels of Sca1 (Gattinoni et al., 2009). Tscm are therefore identified as CD44^−CD62L^+Sca1^hi cells.
as §1

Where [4] appears, read: MI rats, 0.5 mg/kg oral gavage, Month 2, M-mode, vs MI/Vehicle.

As to `O=c1oc2cc(O)ccc2c2ccc(O)cc12` [Urolithin A], in the assay on APTK-OVA tumors, the “number of engrafted CD8+ T cells” value was “significantly higher”.
`O=C1OCc2cc(O)ccc2-c2ccc(O)cc21` [compound 66, 3,9-dihydroxydibenzo[c,e]oxepin-5(7H)-one]: in assay [1] (0.5 mg/kg, 2 months after LAD ligation), the “LV systolic dysfunction induced by MI” value was “able to prevent”. For the same molecule, in assay [1] (setting [4]), the “ejection fraction (EF)” value is “significant increases” and the “fractional shortening (FS)” value was “significant increases”. Moreover, the “Tscm proportion of CD3+ lymphocytes” value in the assay with human T lymphocytes (indicated concentration vs DMSO) is on record as “significant increase”. In the assay on mouse T lymphocytes [2], the “increase in the percentage of Mitotracker positive cells vs DMSO” value is reported as 27.5% and the “percentage of Mitotracker positive cells” value worked out at 56.1%. For the same molecule, the “increase in the percentage of Tscm in CD8+ cells vs DMSO” value in the assay with mouse T lymphocytes [3] came to 69%. Further, the “percentage of Tscm in CD8+ cells” value with mouse T lymphocytes [3] (DMSO 16.7%) was determined as 28.2%.
On to `CN1C(=O)Cc2cc(O)ccc2-c2ccc(O)cc21` [compound 77, 3,9-dihydroxy-5-methyl-5,7-dihydro-6H-dibenzo[b,d]azepin-6-one], for which the “increase in Tscm proportion of CD8+ lymphocytes” value with human T lymphocytes (400 nM, 72 h, vs DMSO) is listed as around 3 fold. In the assay on mouse T lymphocytes [2], the “increase in the percentage of Mitotracker positive cells vs DMSO” value came out at 43.4% and the “percentage of Mitotracker positive cells” value stood at 63.1%.
